Where a SMILES comes first, the peptide text is derived from it. [ ]: non-standard residue; d: D form. The star is where a group is joined. Sta = CC(C)C[C@H](N)[C@@H](O)CC(=O)O; Isovaleryl = CC(C)CC(=O)*
What was measured:
Assay type in all cases: biochemical
[1] = biological target: human cathepsin D (human liver, Cal Biochem, catalog # 219401) (Homo sapiens, UniProt P07339); experiment: N-dansyl peptide (SEQ ID NO: 7) peptidase assay with HPLC detection, cathepsin D; conditions: pepstatin A 213 uM; cathepsin D 2.8 ug/ml, N-Dansyl-peptide 24 uM, pH 5.0, 37 C; Figure 10
human cathepsin D (human liver, Cal Biochem, catalog # 219401), sequence (P07339 with tags, fused parts or gaps): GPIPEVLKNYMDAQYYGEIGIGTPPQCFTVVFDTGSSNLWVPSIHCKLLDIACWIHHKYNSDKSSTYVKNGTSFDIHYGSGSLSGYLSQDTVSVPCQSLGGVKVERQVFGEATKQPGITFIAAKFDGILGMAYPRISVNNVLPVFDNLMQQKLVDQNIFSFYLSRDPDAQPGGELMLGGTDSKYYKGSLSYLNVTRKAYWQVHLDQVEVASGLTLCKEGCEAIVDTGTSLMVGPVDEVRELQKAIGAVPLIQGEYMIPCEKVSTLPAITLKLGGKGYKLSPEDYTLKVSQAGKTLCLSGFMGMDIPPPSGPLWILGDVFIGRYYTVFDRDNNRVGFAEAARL
Protocol: (§1) Reactions (30 ul) were initiated at 37 C by enzyme/inhibitor addition thereby achieving the following t=0 component concentrations: Cathepsin D (2.8 ug/ml), or P-2 enzyme from figure 6 (17.5 ug/ml), N-Dansyl-peptide (24 uM), captopril (0.3 mM) in a cocktail buffer comprising 130 mM in each of acetate, Mes and Tris pH 5.0. Samples contained either pepstatin A (213 uM in 3% v/v final methanol) or an equivalent final concentration of methanol only. At 0, 2, 4, 8 and 24hr, reactions were terminated by addition of 12 % (v/v) TFA (10 ul) and subject to HPLC analysis according to example 2 and 3.
(§2) • i) Incubations. […] Incubation with ion-exchange fractions was performed at 37°C for 24 hrs, after which reactions were terminated by adjusting to 3% (v/v) final in TFA. • ii) HPLC quantification of proteolytic products. HPLC analysis was performed using a Hewlet-Packard HP1090 complete with binary solvent delivery, heated column compartment, and auto injector.

[2] = biological target: human brain P-2 enzyme (peak B), aspartic protease identified as cathepsin D (Homo sapiens, UniProt P07339); experiment: N-dansyl peptide (SEQ ID NO: 7) peptidase assay with HPLC detection, P-2 enzyme (peak B); conditions: pepstatin A 213 uM; P-2 enzyme 17.5 ug/ml, N-Dansyl-peptide 24 uM, pH 5.0, 37 C; Figure 10
human brain P-2 enzyme (peak B), aspartic protease identified as cathepsin D, sequence (P07339 with tags, fused parts or gaps): as above
Protocol: as §1, §2

[3] = test system: human brain P-2 derived aprotinin binding pool Y protease (chymotryptic-like serine protease); experiment: Immunoblot assay of APP degradation by the pool Y serine protease; conditions: 400 uM pepstatin in methanol; pool Y 14 ug/ml, APP 35 nM, Mes pH 6.5, 4 hr; Figure 18a
Protocol: Reactions were initiated at 37°C by enzyme addition to achieve the following initial component concentrations in a 16 ul volume: pool Y # 3-5 (14 ug/ml) after purification on a superdex 75 column, APP (35 nM), in 30 mM Mes buffer pH 6.5. Reactions were terminated by addition of 7.5 ul of 3X sample buffer. Immunoblots were developed using the rabbit antiserum to the APP C-terminal domain according to example 8. […] The following controls were also run: no inhibitor (lane 12), ethanol (lane 3), methanol (lane 5), pool Y only (lane 2), APP only at time zero (lane 13) and 4 hr (lane 14). Lanes 1 and 7 respectively show prestained Mr markers and the C-100 standard. Panel (b) 1.8 uM alpha-1-antichymotrypsin (lane 2), 156 uM TLCK (lane 3), 46 uM chymotrypsin inhibitor I (lane 4), 119 uM chymotrypsin inhibitor II (lane 5), 4 uM alpha-2-antiplasmin (lane 6), 51 uM alpha-1-antitrypsin (lane 7), 98 uM chymostatin administered in DMSO (lane 10), 153 uM methanolic TPCK (lane 12). Controls included: no inhibitor (lane 8), DMSO (lane 11), and methanol (lane 13). Pre-stained molecular weight markers and C-100 standards were applied to lanes 1 and 9 respectively. Incubation times of 4 and 2 hr were used in panels a) and b) respectively.
• i) Sub-cellular fractionation. This was performed essentially as described in Method 1, above. • ii) Solubilization. This was performed essentially as described in Method 1, above. • iii) Aprotinin-sepharose chromatography. Soluble (230 mg), P-2 (216 mg) or microsomal fraction (47 mg) described above was applied to a column of aprotinin sepharose (Sigma, catalog # 42268, 1.5 X 10 cm), previously equilibrated with 20 mM Tris HCl buffer pH 7.0. Once loaded the column was washed with equilibration buffer (100 ml), and then eluted with 60 ml of 50 mM sodium acetate buffer pH 5.0 containing 500 mM sodium chloride. The flow rate was 1.0 ml/min throughout. Eluted fractions (4 ml) were monitored at 280 nm, analysed using the Bradford protein assay, and examined for APP C-terminal processing activity as described in Example 8, using recombinant APP derived by expression in a baculo virus system. […] Active fractions from the purification of the P-2 fraction on aprotinin-sepharose were pooled, dialyzed against 50 mM Tris-HCl pH 7.5 and applied to a mono-Q column (HR 5/5), previously equilibrated with dialysis buffer. Once loaded, the column was eluted essentially as described in Method 1. above. Active fractions (2 ml), were monitored for A 280 nm, total protein (Bradford assay), and for their capacity for baculo virus derived APP C-terminal processing. […] Pools X, Y, and Z were each concentrated to either 2 ml (pool X and Y) or 3.6 ml (pool z) and separately applied to a Superdex 75 column (Pharmacia, Piscataway NJ.) previously equilibrated with 50 mM Tris-HCl pH 7.5, containing 150 mM sodium chloride. Once loaded, the column was eluted with equilibration buffer. Chromatography was performed at a flow rate of 1.0 ml/min throughout. Fractions (1 ml) were monitored for A 280 nm, total protein (Bradford assay) and for C-terminal processing of baculo expressed APP. The gel filtration was calibrated by chromatography of each of the following standard proteins: Thyroglobulin (670 kDa), bovine gamma globulin (158 kDa), ovalbumin (44 kDa), myoglobin (17.5 kDa) and vitamin B 12 (1.35 kDa).

## CC(C)CC(=O)N[C@H](C(=O)N[C@H](C(=O)N[C@@H](CC(C)C)[C@@H](O)CC(=O)N[C@@H](C)C(=O)N[C@@H](CC(C)C)[C@@H](O)CC(=O)O)C(C)C)C(C)C [pepstatin A] (Isovaleryl-VV[Sta]A[Sta]-OH)
[1]
  Inhibition of peptidase reaction catalyzed by Cathepsin D: inhibited
[2]
  Inhibition of peptidase reaction catalyzed by the P-2 enzyme preparation: inhibited
[3]
  Inhibitor sensitivity of the pool Y protease (APP degradation): unaffected

Source: patent EP0569777A2 (Bayer Corporation, priority 1992, dated 1993)
